{
  "source": "ChEMBL document CHEMBL1201862",
  "about": "“PubChem BioAssay data set” (2004)",
  "key": {"[1]": {"biological_target": "Voltage-gated N-type calcium channel alpha-1B subunit/Amyloid beta A4 precursor protein-binding family A member 1 (Homo sapiens, UniProt Q00975+Q02410)", "sequence (Q00975 whole entry)": "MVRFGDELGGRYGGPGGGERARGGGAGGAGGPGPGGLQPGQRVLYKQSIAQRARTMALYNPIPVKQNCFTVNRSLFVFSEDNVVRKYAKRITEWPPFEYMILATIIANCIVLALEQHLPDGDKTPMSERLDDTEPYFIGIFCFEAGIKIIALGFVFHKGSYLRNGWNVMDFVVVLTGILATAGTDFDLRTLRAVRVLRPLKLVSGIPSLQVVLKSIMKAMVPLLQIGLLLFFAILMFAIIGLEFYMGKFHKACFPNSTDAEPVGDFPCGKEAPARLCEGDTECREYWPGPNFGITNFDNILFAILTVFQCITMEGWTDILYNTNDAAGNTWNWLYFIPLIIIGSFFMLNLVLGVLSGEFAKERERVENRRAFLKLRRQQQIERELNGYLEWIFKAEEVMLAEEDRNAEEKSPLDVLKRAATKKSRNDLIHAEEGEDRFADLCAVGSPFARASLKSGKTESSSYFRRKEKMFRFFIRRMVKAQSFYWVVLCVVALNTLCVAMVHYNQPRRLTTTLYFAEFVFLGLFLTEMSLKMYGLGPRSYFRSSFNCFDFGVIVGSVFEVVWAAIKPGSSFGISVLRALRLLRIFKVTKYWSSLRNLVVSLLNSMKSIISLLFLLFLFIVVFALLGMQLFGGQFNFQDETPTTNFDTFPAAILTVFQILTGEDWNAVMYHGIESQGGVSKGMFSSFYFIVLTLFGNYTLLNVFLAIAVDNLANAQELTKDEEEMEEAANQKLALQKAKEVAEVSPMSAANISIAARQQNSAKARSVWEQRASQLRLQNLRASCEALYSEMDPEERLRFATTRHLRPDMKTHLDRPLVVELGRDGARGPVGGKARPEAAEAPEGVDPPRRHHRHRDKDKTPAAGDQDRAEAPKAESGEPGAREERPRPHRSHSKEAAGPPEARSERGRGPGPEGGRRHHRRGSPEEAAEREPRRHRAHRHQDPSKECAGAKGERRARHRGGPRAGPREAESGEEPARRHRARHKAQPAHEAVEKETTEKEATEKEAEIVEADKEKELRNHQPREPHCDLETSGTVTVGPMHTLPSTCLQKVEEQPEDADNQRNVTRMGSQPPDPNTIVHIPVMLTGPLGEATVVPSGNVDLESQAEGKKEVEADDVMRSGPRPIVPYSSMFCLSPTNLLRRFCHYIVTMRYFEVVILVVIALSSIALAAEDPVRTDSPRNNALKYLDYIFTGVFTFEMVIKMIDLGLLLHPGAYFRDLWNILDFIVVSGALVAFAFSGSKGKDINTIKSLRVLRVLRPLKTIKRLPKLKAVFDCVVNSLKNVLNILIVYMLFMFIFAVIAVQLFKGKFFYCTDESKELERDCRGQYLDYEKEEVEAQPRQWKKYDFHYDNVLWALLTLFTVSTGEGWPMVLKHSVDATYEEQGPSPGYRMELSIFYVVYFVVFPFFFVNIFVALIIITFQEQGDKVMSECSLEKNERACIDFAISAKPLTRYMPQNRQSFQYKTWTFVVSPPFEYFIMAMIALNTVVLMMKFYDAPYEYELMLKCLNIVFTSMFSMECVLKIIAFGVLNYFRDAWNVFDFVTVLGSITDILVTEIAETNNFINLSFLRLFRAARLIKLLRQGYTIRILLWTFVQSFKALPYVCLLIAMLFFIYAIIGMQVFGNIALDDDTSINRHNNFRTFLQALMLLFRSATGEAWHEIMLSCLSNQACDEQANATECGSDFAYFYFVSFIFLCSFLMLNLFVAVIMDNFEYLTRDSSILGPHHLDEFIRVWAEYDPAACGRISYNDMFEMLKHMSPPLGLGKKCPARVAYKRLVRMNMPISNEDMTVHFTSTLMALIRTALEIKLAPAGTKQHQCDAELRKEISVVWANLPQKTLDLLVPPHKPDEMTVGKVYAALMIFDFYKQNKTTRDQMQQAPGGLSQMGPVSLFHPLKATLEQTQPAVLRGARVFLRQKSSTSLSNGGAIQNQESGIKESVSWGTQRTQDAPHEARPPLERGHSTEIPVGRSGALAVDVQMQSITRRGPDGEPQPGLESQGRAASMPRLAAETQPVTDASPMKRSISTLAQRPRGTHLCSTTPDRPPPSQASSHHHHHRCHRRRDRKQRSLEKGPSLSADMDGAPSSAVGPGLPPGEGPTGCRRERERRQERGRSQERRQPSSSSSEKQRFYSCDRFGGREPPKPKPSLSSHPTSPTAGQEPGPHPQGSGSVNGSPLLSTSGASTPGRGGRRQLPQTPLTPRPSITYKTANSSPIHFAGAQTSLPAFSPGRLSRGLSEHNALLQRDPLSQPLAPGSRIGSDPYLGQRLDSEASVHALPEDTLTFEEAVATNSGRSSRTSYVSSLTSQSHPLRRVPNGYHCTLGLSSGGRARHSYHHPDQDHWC", "sequence (Q02410 whole entry)": "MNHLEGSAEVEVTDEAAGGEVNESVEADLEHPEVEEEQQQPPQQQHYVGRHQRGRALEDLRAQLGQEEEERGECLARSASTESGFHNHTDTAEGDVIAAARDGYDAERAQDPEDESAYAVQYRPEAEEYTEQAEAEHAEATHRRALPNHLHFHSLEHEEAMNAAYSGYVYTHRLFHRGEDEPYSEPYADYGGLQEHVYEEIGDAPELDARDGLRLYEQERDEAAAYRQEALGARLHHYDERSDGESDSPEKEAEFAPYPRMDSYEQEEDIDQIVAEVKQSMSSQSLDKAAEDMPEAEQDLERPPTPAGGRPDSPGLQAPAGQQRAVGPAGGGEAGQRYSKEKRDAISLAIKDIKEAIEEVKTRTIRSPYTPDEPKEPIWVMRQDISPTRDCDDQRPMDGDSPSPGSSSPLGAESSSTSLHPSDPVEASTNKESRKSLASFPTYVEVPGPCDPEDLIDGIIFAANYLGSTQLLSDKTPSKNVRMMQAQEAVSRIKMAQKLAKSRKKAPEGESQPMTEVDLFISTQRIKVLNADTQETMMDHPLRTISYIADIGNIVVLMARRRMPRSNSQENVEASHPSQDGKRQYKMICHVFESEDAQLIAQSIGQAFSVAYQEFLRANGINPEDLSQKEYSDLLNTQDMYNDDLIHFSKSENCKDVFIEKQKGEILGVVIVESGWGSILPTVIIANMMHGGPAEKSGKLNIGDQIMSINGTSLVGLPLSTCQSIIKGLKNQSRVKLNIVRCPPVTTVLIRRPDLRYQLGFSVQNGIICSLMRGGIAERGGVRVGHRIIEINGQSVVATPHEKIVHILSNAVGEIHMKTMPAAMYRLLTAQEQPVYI", "assay": "disruptors of Mint-PDZ/N-type channel peptide interaction – biochemical, HTRF, SAR follow-up (AID 2489)", "assay_type": "functional"}, "[2]": {"biological_target": "T1, Tyrosine-protein phosphatase non-receptor type 7 (Homo sapiens, UniProt P35236)", "T1 sequence (P35236 whole entry)": "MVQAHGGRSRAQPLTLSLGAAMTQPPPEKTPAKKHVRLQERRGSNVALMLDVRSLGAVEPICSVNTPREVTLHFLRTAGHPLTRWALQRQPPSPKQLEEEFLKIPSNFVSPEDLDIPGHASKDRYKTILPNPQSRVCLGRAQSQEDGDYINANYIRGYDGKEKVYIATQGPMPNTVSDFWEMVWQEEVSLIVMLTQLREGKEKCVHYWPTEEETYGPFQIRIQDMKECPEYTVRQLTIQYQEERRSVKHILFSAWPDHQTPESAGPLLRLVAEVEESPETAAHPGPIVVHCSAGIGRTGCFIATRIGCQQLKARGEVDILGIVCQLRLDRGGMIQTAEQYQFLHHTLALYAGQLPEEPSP", "assay": "redox-dependent HePTP inhibition, mechanism study, biochemical, fluorescence (AID 2068)", "assay_type": "functional"}, "[3]": {"assay": "blockers of SFLLRN-triggered platelet ATP secretion – cell-based, human platelets, luminescence, dry powder, dose response (AID 493100)", "assay_type": "functional"}, "[4]": {"assay": "Cytotoxicity screening for potential Inhibitors of Bacterial Capsule Biogenesis. [Related pubchem assays (depositor defined):AID488970]", "assay_type": "functional"}, "[5]": {"biological_target": "T2, Ubiquitin-conjugating enzyme E2 N (Homo sapiens, UniProt P61088)", "T2 sequence (P61088 whole entry)": "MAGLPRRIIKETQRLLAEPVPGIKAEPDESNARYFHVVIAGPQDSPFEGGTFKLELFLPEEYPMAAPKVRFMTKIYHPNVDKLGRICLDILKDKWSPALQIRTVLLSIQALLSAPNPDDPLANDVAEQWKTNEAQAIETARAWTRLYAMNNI", "assay_type": "functional"}, "[6]": {"assay": "cytotoxicity toward NIH3T3 fibroblasts, dose response, counter-screen, cell-based, ATP luminescence, mouse fibroblasts (AID 2010);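 note: cells exposed to compound for about 90 hours before reading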", "assay_type": "functional"}, "[7]": {"assay": "inhibitors of intracellular T. cruzi replication, confirmation, NIH3T3 host cells, beta-gal luminescence (AID 2044);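 note: luminescent beta-galactosidase reporter signal from transgenic T. cruzi replicating inside host cells; inhibitors lower the luminescence signal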", "assay_type": "functional, cell-based"}, "INS1": {"tested_on": "INS1", "assay": "beta cell apoptosis inhibitors, cytokine rescue, dose response, luminescence, retest (AID 449756);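 note: cell death triggered by IL-1 beta plus TNF-alpha plus IFN-gamma mixture; protective hits raise ATP signal compared with cytokine alone wells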", "assay_type": "functional, cell-based", "conditions": "Rattus norvegicus"}, "[8]": {"biological_target": "Intestinal-type alkaline phosphatase (Homo sapiens, UniProt P09923)", "sequence (P09923 whole entry)": "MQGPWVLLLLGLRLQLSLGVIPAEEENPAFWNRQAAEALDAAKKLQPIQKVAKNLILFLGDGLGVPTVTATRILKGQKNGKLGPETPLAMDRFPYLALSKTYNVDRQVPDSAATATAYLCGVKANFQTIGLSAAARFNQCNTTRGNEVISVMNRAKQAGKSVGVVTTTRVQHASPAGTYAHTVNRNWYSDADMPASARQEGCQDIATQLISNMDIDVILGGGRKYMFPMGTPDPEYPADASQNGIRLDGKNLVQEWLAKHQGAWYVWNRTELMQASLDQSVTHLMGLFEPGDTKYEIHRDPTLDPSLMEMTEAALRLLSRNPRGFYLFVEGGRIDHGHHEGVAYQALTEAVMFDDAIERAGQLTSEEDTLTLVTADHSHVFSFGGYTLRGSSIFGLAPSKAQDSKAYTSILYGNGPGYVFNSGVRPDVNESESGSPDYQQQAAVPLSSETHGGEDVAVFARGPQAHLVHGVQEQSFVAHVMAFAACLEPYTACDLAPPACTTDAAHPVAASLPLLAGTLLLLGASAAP", "assay": "Dose Response confirmation of uHTS hits from a small molecule inhibitors of human intestinal alkaline phosphatase via a luminescent assay. [Related pubchem assays (depositor defined):AID2544, AID2574]", "assay_type": "functional"}, "BJ [9]": {"tested_on": "BJ", "assay": "cytotoxicity toward BJ-TERT fibroblasts, dose response, cell-based, RAS-independent, luminescence (AID 1933)", "assay_type": "functional", "conditions": "Homo sapiens"}, "[10]": {"assay": "cytotoxicity toward DRD oncogenic fibroblasts, dose response, cell-based, non-viral oncogenic, luminescence (AID 1934)", "assay_type": "functional", "conditions": "Homo sapiens"}, "[11]": {"assay": "inhibitors of firefly luciferase expression or activity, dose response, H4 neuroglioma cells, luminescence (AID 1990)", "assay_type": "functional, cell-based"}, "[12]": {"assay": "Luminescence Cell-Based Dose Response HTS to Identify Inhibitors of 5'UTR Stem-Loop Driven Prion Protein mRNA Translation in H4 Neuroglioblastoma Cells. [Related pubchem assays: 1827 (Project Summary), 1813 (Primary HTS)]", "assay_type": "functional"}, "BJ [13]": {"tested_on": "BJ", "assay": "cytotoxicity toward BJ-TERT-LT-ST fibroblasts, dose response, cell-based, RAS-independent, luminescence (AID 1935);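 note: BJ fibroblasts immortalized with TERT plus LT and ST oncogenes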", "assay_type": "functional", "conditions": "Homo sapiens"}, "BJ [14]": {"tested_on": "BJ", "assay": "cells", "assay_type": "functional, cell-based", "conditions": "Homo sapiens"}, "[15]": {"assay": "cytotoxicity in HEK-293T cells, dose response, cytotoxicity control for TCR NF-kB inhibitor project, luminescence, T-cell screen hits (AID 489026);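 note: cells exposed to compound about 14 hours before the viability readout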", "assay_type": "functional, cell-based"}, "[16]": {"assay": "inhibitors of SNCA 5'UTR-driven reporter translation, confirmation, H4 neuroglioma cells, luminescence (AID 1988)", "assay_type": "functional, cell-based"}, "J774.A1": {"tested_on": "J774.A1", "assay": "Confirmation of image-based Screening Assay for Inhibitors of Phagocytosis. [Related pubchem assays (depositor defined):AID1029, AID1643]", "assay_type": "functional, cell-based", "conditions": "Mus musculus"}},
  "note": "Active and inactive are the calls of the source.",
  "data": [
    {"smiles": "O=C(Nc1ccc2nc(-c3ccco3)c(-c3ccco3)nc2c1)N1CCOCC1", "values": [
      {"measurement": "IC50", "setting": "[1]", "value": "22.3 µM (active)"},
      {"measurement": "IC50", "setting": "[2]", "value": "0.693 µM (active)"}
    ]},
    {"smiles": "CCCC(=O)Nc1cccc(NC(=O)c2ccccc2C)c1", "values": [
      {"measurement": "AC50", "setting": "[3]", "value": "5.5 µM (active)"}
    ]},
    {"smiles": "N=C(N)N/N=C/c1ccc(OCc2ccccc2)cc1", "values": [
      {"measurement": "CC50", "setting": "[4]", "value": "10.4 µM (active)"},
      {"measurement": "IC50", "setting": "[5]", "value": "> 20 µM (inactive)"},
      {"measurement": "EC50", "setting": "[6]", "value": "> 60 µM (not active)"},
      {"measurement": "EC50", "setting": "[7]", "value": "0.92 µM (active)"},
      {"measurement": "AC50", "setting": "INS1", "value": "6.57 µM (active)"}
    ]},
    {"smiles": "Cc1[nH]n(-c2nc(-c3ccccc3F)cc(=O)[nH]2)c(=O)c1CCO", "values": [
      {"measurement": "IC50", "setting": "[8]", "value": "1.07 µM (active)"}
    ]},
    {"smiles": "CCOC(=O)Nc1nc(-c2ccccc2)c(C(=O)c2ccccc2)s1", "values": [
      {"measurement": "EC50", "setting": "BJ [9]", "value": "7.17 µM (inconclusive)"},
      {"measurement": "EC50", "setting": "[10]", "value": "12.3 µM (inconclusive)"},
      {"measurement": "EC50", "setting": "[11]", "value": "1.41 µM (active)"},
      {"measurement": "EC50", "setting": "[12]", "value": "1.38 µM (active)"},
      {"measurement": "EC50", "setting": "BJ [13]", "value": "4.12 µM (inconclusive)"},
      {"measurement": "EC50", "setting": "BJ [14]", "value": "17.1 µM (inconclusive)"},
      {"measurement": "IC50", "setting": "[15]", "value": "68.3 µM (inactive)"},
      {"measurement": "EC50", "setting": "[16]", "value": "0.198 µM (active)"},
      {"measurement": "IC50", "setting": "J774.A1", "value": "0.215 µM (active)"}
    ]}
  ]
}
